Source: patent publication US8481757B2, “Compounds and compositions useful in the treatment of malaria” (Georgua Tech Research Corporation, priority 2010, dated 2013)
Where two headings read alike, the source gives them in different places.

Columns and labels:
[1] = tested on: Plasmodium falciparum HB3 (chloroquine-sensitive parasite); details: from Hawley et al. (Antimicrob Agents Chemother 1998, 42: 682); cited from earlier work
[2] = tested on: Plasmodium falciparum parasites (3D7 strain); details: from Hawley et al. (Antimicrob Agents Chemother 1998, 42: 682); cited from earlier work
[3] = tested on: heme crystallization; test: Inhibition of heme crystallization; assay type: biochemical; details: molar equivalents of drug to heme
[4] = tested on: Plasmodium falciparum Dd2 (chloroquine-resistant parasite); test: Efficacy against Plasmodium falciparum Dd2; assay type: cell-based
[5] = tested on: Plasmodium falciparum parasites (3D7 strain); test: SYBR Green based parasite proliferation assay (antimalarial activity); assay type: cell-based
[6] = tested on: Plasmodium falciparum HB3 (chloroquine-sensitive parasite); test: Efficacy against Plasmodium falciparum HB3; assay type: cell-based
[7] = Cytotoxicity, HepG2; assay type: cell-based; details: human, HepG2 cells
[8] = Cytotoxicity, Vero; assay type: cell-based; details: African green monkey, Vero cells
[9] = Cytotoxicity, J774; assay type: cell-based; details: mouse, J774 cells
[10] = Plasmodium falciparum, 3D7, Table 5, Example 5 numbering (1-13), read-out: P. falciparum (3D7) IC50
[11] = Plasmodium falciparum, 3D7, Table 1, Example 1 numbering (1-18), read-out: Antimalarial IC50

Compound: CCN(CC)Cc1cc(Nc2ccnc3cc(Cl)ccc23)ccc1O [AMQ, amodiaquine]
- IC50 [1]: 8.5 nM
- IC50 [2]: 7.8 nM
- IC50 for heme crystallization [3]: 1.2 ± 0.19 equivalents

Compound: CC1=C2Cc3cc(ccc3O)C(=O)O[C@H](C(C)(C)Br)CC[C@](C)(O)[C@H](Br)CC[C@]2(C)[C@@H](Br)CC1 [Compound 1]
- IC50 [4]: 497 nM
- IC50 [5, 10]: 650 nM
- IC50 ([5]; Plasmodium falciparum, 3D7, chloroquine-sensitive parasite, Table 6, Example 5 numbering, read-out: 3D7 IC50): 658 nM
- IC50 ([5]; Table 5, Example 5 numbering (1-13), read-out: P. falciparum (3D7) IC50): 660 nM
- IC50 [6]: 565 nM
- IC50 [7]: 21300 nM
- IC50 [8]: 34600 nM
- IC50 for heme crystallization [3]: 2.5 ± 0.13 equivalents
- IC50 [9]: 19000 nM

Compound: CC1=C2Cc3cc(ccc3O)C(=O)O[C@H](C(C)(C)Br)CC[C@](C)(O)/C=C\C[C@]2(C)C=CC1 [Compound 11]
- IC50 [5, 10]: 4600 nM

Compound: C=C1CC[C@H](Br)[C@@]2(C)CC[C@@H]3O[C@@]3(C)CC[C@@H](C(C)(C)O)OC(=O)c3ccc(O)c(c3)C[C@H]12 [Compound 14]
- IC50 [5, 11]: 18000 nM

Compound: CC1=CC[C@@H]2O[C@@]2(C)CC[C@@H](C(C)(C)O)OC(=O)c2ccc(O)c(c2)CC2=C(C)CCC12 (stereo partly shown) [Compound 18]
- IC50 [5, 11]: > 100000 nM

Compound: debromophycolide A [Compound 18 (Example 1)]
- IC50 ([5]; Table 4, Example 3 numbering (1-3), read-out: Antimalarial activity IC50): > 100000 nM
